Source: patent US20220218678A1, “USE OF 1-PHENYL-2-PYRIDINYL ALKYL ALCOHOL DERIVATIVES FOR TREATING CYSTIC FIBROSIS” (CHIESI FARMACEUTICI S.p.A., priority 2017, published 2022)

Assays:
ΔF508 CFTR = biological target: T1, ΔF508 CFTR (Homo sapiens, UniProt P13569, DEL508-508); assay: HS-YFP assay, CFTR potentiator activity in CFBE41o− cells; format: cell-based; details: 10 minutes exposure, following CFTR correction by VRT809 (5 μM, 24 h)
T1 construct: cells expressing endogenous ΔF508-CFTR; endogenous in cells; host or cells: CFBE41o− human CF bronchial epithelial cell line (gift from D. C. Gruenert), homozygous ΔF508
Source text: The CF human bronchial epithelial cell line (CFBE41o−), homozygous for the ΔF508 mutation of the CFTR protein (Ehrhard et al., 2006, Cell Tissue Res. Vol. 323, p. 405-415; kind gift from D. C. Gruenert, California Pacific Medical Center Research Institute, San Francisco, Calif., USA) and the human bronchial epithelial cell line 16HBE14o−, wildtype (wt) for the CFTR protein (kindly provided by P. Davis, Case Western Reserve University School of Medicine, Cleveland, Ohio, USA) were maintained in EMEM (Lonza) supplemented with 10% FBS and 1% Glutamax (Sigma). […]
The CFTR activity in epithelial cells was evaluated by Yellow Fluorescence Protein (YFP) with a protocol modified from the method published by Averna et al. (PLoS One, 2013, vol. 8, e66089). […]
The potential effect of different agents on the activity of CFTR in CFBE41o− cells was analysed by the HS-YFP assay, combining a short exposure (10 minutes) with agents as follows: CHF6001, Roflumilast or VRT 770 (5 μM), alone or in combination, with a 24 h pre-treatment with the CFTR corrector VRT809 (5 μM). […]

[1] = healthy volunteers, daily doses of up to 4800 μg (4.8 mg) for 14 days; cited from earlier work
[2] = diarrhea, weight loss, nausea, headache, insomnia and others; cited from earlier work

T1 sequence (P13569 with tags, fused parts or gaps DEL508-508): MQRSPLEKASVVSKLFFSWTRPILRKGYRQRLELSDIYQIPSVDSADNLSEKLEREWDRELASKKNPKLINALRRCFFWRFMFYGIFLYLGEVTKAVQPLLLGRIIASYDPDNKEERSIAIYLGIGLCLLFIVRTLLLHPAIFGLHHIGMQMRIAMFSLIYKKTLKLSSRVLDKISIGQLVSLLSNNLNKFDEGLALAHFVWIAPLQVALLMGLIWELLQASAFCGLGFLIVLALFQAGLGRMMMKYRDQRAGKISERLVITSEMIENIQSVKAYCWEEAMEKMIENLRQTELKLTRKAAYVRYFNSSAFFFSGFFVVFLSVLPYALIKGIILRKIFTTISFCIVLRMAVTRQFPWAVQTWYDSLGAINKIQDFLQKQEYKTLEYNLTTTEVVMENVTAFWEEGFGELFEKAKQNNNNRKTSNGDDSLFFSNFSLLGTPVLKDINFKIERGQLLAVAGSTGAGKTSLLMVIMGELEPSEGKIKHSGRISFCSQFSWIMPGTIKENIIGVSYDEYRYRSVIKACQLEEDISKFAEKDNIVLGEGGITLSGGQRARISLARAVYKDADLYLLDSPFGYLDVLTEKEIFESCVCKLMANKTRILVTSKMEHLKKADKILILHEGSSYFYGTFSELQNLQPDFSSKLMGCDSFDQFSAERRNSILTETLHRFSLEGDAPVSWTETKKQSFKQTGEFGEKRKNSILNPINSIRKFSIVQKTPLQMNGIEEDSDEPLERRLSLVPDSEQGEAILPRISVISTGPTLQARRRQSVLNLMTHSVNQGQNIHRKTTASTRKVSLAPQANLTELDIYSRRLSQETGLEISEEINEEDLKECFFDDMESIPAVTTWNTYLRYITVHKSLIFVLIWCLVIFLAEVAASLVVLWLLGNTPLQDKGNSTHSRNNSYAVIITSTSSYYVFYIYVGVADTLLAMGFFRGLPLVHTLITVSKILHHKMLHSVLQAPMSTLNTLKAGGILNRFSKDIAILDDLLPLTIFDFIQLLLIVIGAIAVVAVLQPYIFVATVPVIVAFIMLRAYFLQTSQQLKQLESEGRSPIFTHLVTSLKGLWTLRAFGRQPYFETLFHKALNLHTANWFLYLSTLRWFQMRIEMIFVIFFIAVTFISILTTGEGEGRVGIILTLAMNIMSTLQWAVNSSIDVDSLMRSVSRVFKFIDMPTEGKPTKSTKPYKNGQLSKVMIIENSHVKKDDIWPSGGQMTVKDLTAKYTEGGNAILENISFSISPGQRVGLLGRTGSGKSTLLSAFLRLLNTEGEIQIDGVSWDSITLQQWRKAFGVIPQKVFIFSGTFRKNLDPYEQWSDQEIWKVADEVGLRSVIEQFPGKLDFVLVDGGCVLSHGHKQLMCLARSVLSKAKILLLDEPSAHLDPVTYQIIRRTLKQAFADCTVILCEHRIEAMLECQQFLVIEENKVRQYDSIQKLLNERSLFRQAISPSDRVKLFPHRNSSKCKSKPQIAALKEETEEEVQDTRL

Row | Structure (SMILES) | CFTR activity (delta fluorescence un-stimulated versus stimulated cells) (ΔF508 CFTR) | safety and tolerability [1] | frequency of common adverse effects in subjects [2]
1 | CS(=O)(=O)Nc1ccc(C(=O)OC(Cc2c(Cl)c[n+]([O-])cc2Cl)c2ccc(OC(F)F)c(OCC3CC3)c2)cc1OCC1CC1 (stereo not drawn) [CHF6001, 3-Cyclopropylmethoxy-4-methanesulfonylamino-benzoic acid 1-(3-cyclopropylmethoxy-4-difluoromethoxy-phenyl)-2-(3,5-dichloro-1-oxy-pyridin-4-yl)-ethyl ester] | comparable to the reference compound VRT 770 | Good safety and tolerability | 
2 | O=C(Nc1c(Cl)cncc1Cl)c1ccc(OC(F)F)c(OCC2CC2)c1 [Roflumilast, 3-cyclo-propylmethoxy-4-difluoromethoxy-N-[3,5-di-chloropyrid-4-yl]-benzamide] |  |  | 1-10%
